In patent US20260217983A1, “SULFONIUM SALT PHOTOINITIATORS AND METHODS OF LED CURING A COMPOSITION WITH SAID SULFONIUM SALT PHOTOINITIATORS” (ARKEMA FRANCE, priority 2022, published 2026):
“Also recorded” adds a separate entry of the source.

What was measured:
[1] = FTIR-ATR cure test of cationic formulations (epoxide, oxetane conversion, 1100 cm^-1 peak growth); conditions: 405 nm, cationic systems
Method: Matrixes: In a 1000 mL of metal can, formulation matrix was charged according to the percentage in Table 12. The 1000-1005 g mixture of each matrix sample was prepared and mixed by mechanical mixer for about 1 hour around 60° C. until the solution became clear. Formulations: In a white max 50 jar from FlackTek Inc., photoinitiator and propylene carbonate were loaded at first, mixed by hand with stainless steel spatula, placed in 60° C. oven for about 1 h, mixed again until it became clear. Then, formulation matrix was charged according to the percentage in one of Table 13 to 21. The […]-52.60 g mixture of each sample was prepared and mixed for 3 minutes at 3000 RPM in Speed Mixer from FleackTec Inc. Then, all jars were placed in 60° C. oven for about 2 h, taken out and immediately mixed for another 2 minutes until the solution became clear.
A Fourier Transform Infrared (FTIR) with an Attenuated Total Reflection (ATR) setup was used. All polymerization rate measurements were performed using Nicolet iS50 FT-IR Spectrometer from Thermo Scientific, equipped with a standard DLaTGS detector. A lamp holder for the ART platform of FTIR unit can be customized and printed from Arkema N3xtDimention® engineered resin N3D-TOUGH784 in order to ensure precisely fit of a 365 nm lamp Accucure ULM-2-365 or a 405 nm lamp Accucure ULM-2-405 from Digital Light Labs. On the bottom of this lamp holder, a dry air channel is built in to allow air uniformly blowing over sample surface, the gas flow rate can be controlled over a rotameter. The LED light was manually triggered by Ultraviolet illumination & Measurement System. LED light exposure can be programed by AccuCure software. For measurement, 25 μL of liquid sample was placed in the center of an ATR crystal. 3 mil of thin film was prepared by a customized coating applicator (3 mil WFM, G1046 from BYK). The LED lamp with holder was place on the top of ART platform. Then FTIR scan was initiated to collect liquid IR spectrum at first. Each IR spectrum of a specific exposure time at 10 mW/cm^2 of LED light were collected. Measurements of acrylate conversion were taken at the peak height under the reference peak around 1727 cm^−1; the acrylate peak of SR833S at approximately 1407 cm^−1, the epoxide peak of UviCure S105 at approximately 790 cm^−1, and the oxetane peak of UViCure S130 at approximately 970 cm^−1 were also measured. Since the ring opening of both epoxide and oxetane generated C—O—C bond, the growth of C—O—C IR peak height at ~1100 cm^−1 was monitored as well. The resulting of peak 1100 cm^−1 growth rate could be calculated to assess total cationic cure speed. Peak heights were determined using the same baseline where a baseline is chosen to be the two lowest points between 600 cm^−1 and 1800 cm^−1. The peak height under the peak and above the baseline was then determined. The integration limits for liquid and the cured sample are not identical but are similar, especially for the reference peak.
The ratios of the acrylate peak height, epoxide peak height, ring opening peak height from both epoxide and oxetane to the reference peak height were determined for both the liquid and the cured samples. Degree of cure or conversion or peak growth rate, expressed as percentage reacted acrylate or epoxide or ring opening of both epoxide and oxetane, was calculated from the equation below: […]
Where Rliq is the peak height ratio of the liquid sample and Rc is the peak height ratio of the LED cured sample. The resulting acrylate and epoxide conversions or C—O—C growth rates were collected and listed in Tables 13 to 21, plotted in FIG. 1 to 8 and FIG. 10.

[2] = UV Vis spectra measurement; format: physicochemical; conditions: 10 ppm in acetonitrile
Excerpt: UV-Vis spectrum of each sample was taken with a Shimadzu UV1800 spectrophotometer using a 1.0 cm path of cuvette quartz cell in accordance with ASTM E169-04, and scanning the spectrum over the wavelength range of 450 to 200 nm.

[3] = Belt curing performance (thumb-twist depth cure) in UViCure S105E resin; conditions: 24 μm film, under air, PI 2 wt %
Method: (§1) The photoinitiators were dissolved either in neat UViCure S105E resin or a hybrid acrylate/epoxy resin (prepared by mixing 60 wt parts UViCure S105E, 15 wt parts UViCure S130 and 25 wt parts SR492; all product are available from Sartomer). Formulations were prepared by combining all materials in the given proportions and then stirring at 30-40° C. until the samples were fully homogeneous; the formulations were then allowed to cool to room temperature. For all experiments, the formulations were cured on Leneta Form 3N-31 gloss finish paper at 6 μm and 24 μm film thickness using a belt-cure instrument; the films were prepared using a K-bar. All films were then cured under an LED lamp at a given belt speed. ‘Depth cure’ for each formulation was assessed using the ‘thumb-twist’ test (where no visible mark is made when a thumb is pressed down firmly onto the coating with a twisting motion), and from the belt speed; the calculated cure speed (in m/min) is given.

[4] = Solubility in propylene carbonate at ambient temperature; format: physicochemical; conditions: 20-25° C.
Method: Solubility of selected sulfonium salts in propylene carbonate at ambient temperature (20-25° C.) was determined.

[5] = Transmittance at 0.01% w/v in propylene carbonate; format: physicochemical
Method: The samples were prepared at 0.01% w/v in propylene carbonate.

[6] = Belt curing performance (thumb-twist depth cure) in hybrid acrylate/epoxy resin; conditions: 24 μm film, under air, PI 2 wt %
Method: as §1

[7] = 3D printability in hybrid system on 405 nm DLP printers; conditions: hybrid formulations of Table 23
[8] = LED 365 nm, 100% intensity (=70.1 mJ/cm^2), belt speed 40 m/min

## CCOP(=O)(C(=O)c1c(C)cc(C)cc1C)c1ccccc1 (centres unmarked) [Speedcure TPO-L, Ethyl(2,4,6-trimethylbenzoyl)phenyl phosphinate, reference compound]
[1]
  effect of radical photoinitiator on cationic photopolymerization: Neither radical photoinitiator BKL nor TPO-L could promote cationic photopolymerization; also recorded: slowed down the most

## CC(C)(C)c1ccc([I+]c2ccc(C(C)(C)C)cc2)cc1 [Speedcure 938, Bis (4-tert-butylphenyl) iodonium hexafluorophosphate, reference compound]
[2]
  UV absorption over 310 nm wavelength: did not have any absorption at all

## COC(OC)(C(=O)c1ccccc1)c1ccccc1 [Speedcure BKL, 2,2-dimethoxy-1,2-diphenylethan-1-one, reference compound]
[1]
  effect of radical photoinitiator on cationic photopolymerization: Neither radical photoinitiator BKL nor TPO-L could promote cationic photopolymerization

## CC(C)c1ccc2c(c1)c(=O)c1ccccc1[s+]2-c1ccc(-c2ccccc2)cc1 (centres unmarked) [Omnicat 550, 10-[1,1′-Biphenyl]-4-yl-2-(1-methylethyl)-9-oxo-9H-thioxanthenium hexafluorophosphate, reference compound]
[3]; [8]
  Cure speed in UViCure S105E resin: 5.0 m/min
[3]; LED 395 nm, 40 m/min, 100% intensity (=164.5 mJ/cm^2)
  Cure speed in UViCure S105E resin: 8.0 m/min
[4]
  Solubility in propylene carbonate: 25 wt %
[5]
  % Transmittance at 355 nm: 86.8%
  % Transmittance at 420 nm: 99.1%
[6]; [8]
  Cure speed in hybrid acrylate/epoxy resin: 5.7 m/min
[6]; LED 395 nm, 80 m/min, 50% intensity (=36.9 mJ/cm^2)
  Cure speed in hybrid acrylate/epoxy resin: 10.5 m/min
[7]
  printability on 405 nm DLP printers: not printable even with over exposure time
